Results: patent US11185557B2, “Use of rhamnose and derivatives thereof as antifungal agents” (ISDIN, S.A., priority 2017, dated 2021)

Tested on: Malassezia furfur
Experiment: Ex-vivo antifungal activity assay on inoculated human skin explants, product applied 24 hours after inoculation, CFU quantification
Type: cell-based
Details: topical 2 mg/cm^2 applied 24 hours post inoculation, versus inoculum (C1) and untreated control explants (C2), FIG. 2
Protocol: Human organotypic skin cultures were obtained from abdominal skin removed during aesthetic surgery. These skin explants were altered by partial elimination of stratum corneum to facilitate the colonization and MF suspension was placed on the skin surface and incubated for 24 hours under conditions that are optimal for MF growth. 24 hours post initial MF inoculation, NSFC was topically applied on skin explants (2 mg/cm^2) and spread evenly. On control skin explants, inoculated in the same way, no product was applied (C2). A sham control group was treated with a neutral cream without known antifungal properties, petroleum jelly (P3). Growth of MF was monitored by quantifying MF Colony Forming Units (CFUs) in a sample removed from skin surface. The quantification of CFUs was carried out by recovering fungal microorganisms from skin explants and subsequent plating them following the serial dilution method to determine the number of CFUs.
The antifungal activity was evaluated for Ketoconazole 2% (P1), the composition of example 1 (P2), and petroleum jelly (Vaseline) (P3) with respect to the inoculum concentration (C1) and control skin explants (C2).

`CC(=O)N1CCN(c2ccc(OCC3COC(Cn4ccnc4)(c4ccc(Cl)cc4Cl)O3)cc2)CC1` (stereo not shown) [Ketoconazol 2%, ketoconazole] was tested, and the “growth of M. furfur on the skin explants (CFUs)” value was “reduced the growth of the fungus”.
